Test results taken from patent publication US7473790B2 (Pfizer Inc., priority 2003, dated 2009).

Biological target: T1, HCV polymerase (Hepatitis C virus genotype 1b, UniProt P26663)
T1 construct: 2.5 pmoles (0.15 μg) HCV polymerase protein in a final volume of 75 μL
Assay: HCV polymerase primer/template-directed transcription assay (32P-GTP incorporation, filter binding)
Assay type: biochemical
Conditions: @ 50 uM compound; given where IC50 was impractical to calculate; read-out: percent inhibition
Procedure: The compounds described herein were tested for activity with HCV polymerase. Recombinant HCV polymerase was tested for its ability to perform primer/template-directed transcription in assays that contained 30 mM tris-HCl pH 7.2, 10 mM MgCl2, 20 mM NaCl, 1 mM Dithiothreitol (DTT), 0.05% Tween-20, 1% glycerol, 5 pmoles biotin-dG12 (primer), 0.5 pmoles poly(rC)300 (template), 1 μM GTP, 0.1-0.3 uCi α-^32P-GTP, and 2.5 pmoles (0.15 μg) HCV polymerase protein in a final volume of 75 μL. Reactions were initiated by addition of enzyme and incubated 30 minutes at 30° C. Reactions were stopped by addition of 33 mM EDTA, and polynucleotide products were collected by filtration through Diethylaminoethyl (DE) Filtermat papers (Wallac). Unincorporated triphosphate was removed by washing the filters with 5% dibasic sodium phosphate. The filters were counted in a Packard Tri-Lux Microbeta scintillation counter (Packard Bioscience, Meriden, Conn.). Compounds to be tested were added at various concentrations, e.g., 1 μm to 50 μm, from stocks in 10% DMSO-water (final DMSO is 1% in reaction).
IC50 values were estimated from the primary cpm data (collected in triplicate) using the formula: cpm (I)=cpm(no inhibitor)(1−([I]/([I]+IC50))). An IC50 value represents the concentration (in μM) of a compound that provides 50% inhibition of polymerase-directed transcription in the above assay. A percent inhibition value is expressed for a compound where it was impractical to calculate an IC50 value with available data. If the IC50 estimated by the above equation was less than 200 nM, it was recalculated using the following equation, which takes into account the enzyme concentration (30 nM) in the assay: cpm(I)=cpm(no inhibitor)(1−((((I+IC50+30e−9)−sqrt(((I+IC50+30e−9)^2)−4×30e−9×I)))/((2)(30e−9))). Curve fitting was performed using the program KaleidaGraph (Synergy Software, Reading, Pa.).

T1 sequence (P26663 2420-3010): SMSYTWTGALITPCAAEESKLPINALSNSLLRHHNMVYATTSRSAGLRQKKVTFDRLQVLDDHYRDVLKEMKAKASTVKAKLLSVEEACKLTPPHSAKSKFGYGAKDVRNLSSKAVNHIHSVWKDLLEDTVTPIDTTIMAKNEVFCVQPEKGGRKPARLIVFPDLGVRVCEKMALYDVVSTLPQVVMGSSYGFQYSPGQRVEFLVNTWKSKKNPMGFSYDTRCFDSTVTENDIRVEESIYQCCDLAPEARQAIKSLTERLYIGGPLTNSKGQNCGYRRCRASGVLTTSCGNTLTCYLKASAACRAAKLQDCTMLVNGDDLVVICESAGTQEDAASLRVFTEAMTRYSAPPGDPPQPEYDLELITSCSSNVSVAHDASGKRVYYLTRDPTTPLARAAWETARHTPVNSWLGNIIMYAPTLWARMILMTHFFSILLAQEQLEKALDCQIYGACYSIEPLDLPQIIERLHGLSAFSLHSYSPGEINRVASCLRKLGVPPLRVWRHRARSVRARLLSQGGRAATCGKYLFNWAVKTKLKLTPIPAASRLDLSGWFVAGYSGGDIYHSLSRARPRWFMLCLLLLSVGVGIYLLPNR

`O=C1CC(=O)OC(CCN2CCCC2=O)(C2CCCC2)C1` (stereo not drawn) [A(14), 6-Cyclopentyl-6-[2-(2-oxo-pyrrolidin-1-yl)-ethyl]-dihydro-pyran-2,4-dione] was tested, and the inhibition at 50 µM was 35%.

Same assay, conditions: recombinant HCV polymerase; 30 minutes at 30° C.; concentration giving 50% inhibition of polymerase-directed transcription; read-out: IC50

`CCc1ccc(O)c(CCC2(C3CCCC3)CC(O)=C(Cc3nc4ncc(C)cn4n3)C(=O)O2)c1` (single isomer, unassigned; enantiomer 1) [A(174), Enantiomer 1 of 6-Cyclopentyl-6-[2-(5-ethyl-2-hydroxy-phenyl)-ethyl]-4-hydroxy-3-(6-methyl-[1,2,4]triazolo[1,5-a]pyrimidin-2-ylmethyl)-5,6-dihydro-pyran-2-one] and `CCc1ccc(O)c(CCC2(C3CCCC3)CC(O)=C(Cc3nc4ncc(Cl)cn4n3)C(=O)O2)c1` (single isomer, unassigned; enantiomer 2) [A(172), Enantiomer 2 of 3-(6-Chloro-[1,2,4]triazolo[1,5-a]pyrimidin-2-ylmethyl)-6-cyclopentyl-6-[2-(5-ethyl-2-hydroxy-phenyl)-ethyl]-4-hydroxy-5,6-dihydro-pyran-2-one] are the same in IC50: 0.006 µM for the first, 0.006 µM for the second.

Compared with `CCc1ccc(O)c(CCC2(C3CCCC3)CC(O)=C(Cc3nc4nc(C)cc(C)n4n3)C(=O)O2)c1` (single isomer, unassigned; enantiomer 2) [A(168), Enantiomer 2 of 6-Cyclopentyl-3-(5,7-dimethyl-[1,2,4]triazolo[1,5-a]pyrimidin-2-ylmethyl)-6-[2-(5-ethyl-2-hydroxy-phenyl)-ethyl]-4-hydroxy-5,6-dihydro-pyran-2-one], `Cc1cc(C)n2nc(CC3=C(O)CC(CCc4ccc([C@@H](C)O)c(F)c4)(C4CCCC4)OC3=O)nc2n1` (stereo in doubt) [B(114), 6-Cyclopentyl-3-(5,7-dimethyl-[1,2,4]triazolo[1,5-a]pyrimidin-2-ylmethyl)-6-{2-[3-fluoro-4-(1-hydroxy-ethyl)-phenyl]-ethyl}-4-hydroxy-5,6-dihydro-pyran-2-one] is 1.8-fold higher in IC50: 0.009 µM for the first, 0.016 µM for the second.

`CCc1ccc(O)c(CCC2(C3CCCC3)CC(O)=C(Cc3nc4ncc(C)cn4n3)C(=O)O2)c1` (single isomer, unassigned; enantiomer 2) [A(175), Enantiomer 2 of 6-Cyclopentyl-6-[2-(5-ethyl-2-hydroxy-phenyl)-ethyl]-4-hydroxy-3-(6-methyl-[1,2,4]triazolo[1,5-a]pyrimidin-2-ylmethyl)-5,6-dihydro-pyran-2-one] and `C[C@@H](O)c1ccc(CCC2(C3CCCC3)CC(O)=C(Cc3nc4ncc(Cl)cn4n3)C(=O)O2)cc1F` (stereo in doubt) [B(116), 3-(6-Chloro-[1,2,4]triazolo[1,5-a]pyrimidin-2-ylmethyl)-6-cyclopentyl-6-{2-[3-fluoro-4-(1-hydroxy-ethyl)-phenyl]-ethyl}-4-hydroxy-5,6-dihydro-pyran-2-one] are within 1.5-fold of each other in IC50: 0.009 µM for the first, 0.011 µM for the second.

Going from `Cc1cc(C)n2nc(CC3=C(O)CC(CCc4ccc(C(C)(C)O)c(F)c4)(C4CCCC4)OC3=O)nc2n1` (single isomer, unassigned; enantiomer a) [A(218), 6-cyclopentyl-3-[(5,7-dimethyl[1,2,4]triazolo[1,5-a]pyrimidin-2-yl)methyl]-6-{2-[3-fluoro-4-(1-hydroxy-1-methylethyl)phenyl]ethyl}-4-hydroxy-5,6-dihydro-2H-pyran-2-one (enantiomer A)] to `COc1ccc(CCC2(C3CCCC3)CC(O)=C(Cc3nc4nc(C)cc(C)n4n3)C(=O)O2)cc1[C@@H](C)O` (stereo in doubt) [B(120), 6-Cyclopentyl-3-(5,7-dimethyl-[1,2,4]triazolo[1,5-a]pyrimidin-2-ylmethyl)-4-hydroxy-6-{2-[3-(1-hydroxy-ethyl)-4-methoxy-phenyl]-ethyl}-5,6-dihydro-pyran-2-one], the IC50 falls from 0.061 µM to 0.012 µM (5.1-fold). The second is the more potent here.

Compared with `Cc1cc(C)n2nc(CC3=C(O)CC(CCc4ccc(C(C)(C)O)c(F)c4)(C4CCCC4)OC3=O)nc2n1` (single isomer, unassigned; enantiomer b) [A(219), 6-cyclopentyl-3-[(5,7-dimethyl[1,2,4]triazolo[1,5-a]pyrimidin-2-yl)methyl]-6-{2-[3-fluoro-4-(1-hydroxy-1-methylethyl)phenyl]ethyl}-4-hydroxy-5,6-dihydro-2H-pyran-2-one (enantiomer B)], `CC(C)(C)c1cc(CCC2(C3CCCC3)CC(=O)CC(=O)O2)ccc1O` (stereo not drawn) [A(02), 6-[2-(3-tert-Butyl-4-hydroxy-phenyl)-ethyl]-6-cyclopentyl-dihydro-pyran-2,4-dione] is 27-fold higher in IC50: 0.088 µM for the first, 2.4 µM for the second.

Compared with `CCn1cc(CCC2(C3CCCC3)CC(=O)CC(=O)O2)ccc1=O` (stereo not drawn) [A(01), 6-Cyclopentyl-6-[2-(1-ethyl-6-oxo-1,6-dihydro-pyridin-3-yl)-ethyl]-dihydro-pyran-2,4-dione], `CCOc1ccc(CCC2(C3CCCC3)CC(=O)CC(=O)O2)cc1C` (stereo not drawn) [A(03), 6-Cyclopentyl-6-[2-(4-ethoxy-3-methyl-phenyl)-ethyl]-dihydro-pyran-2,4-dione] is 8.9-fold lower in IC50: 38.3 µM for the first, 4.3 µM for the second.

`Cc1cc(CCC2(C3CCCC3)CC(=O)CC(=O)O2)ccc1OC(C)C` (stereo not drawn) [A(04), 6-Cyclopentyl-6-[2-(4-isopropoxy-3-methyl-phenyl)-ethyl]-dihydro-pyran-2,4-dione] and `COCc1ccc(CCC2(C3CCCC3)CC(=O)CC(=O)O2)cc1F` (stereo not drawn) [A(08), 6-Cyclopentyl-6-[2-(3-fluoro-4-methoxymethyl-phenyl)-ethyl]-dihydro-pyran-2,4-dione] are within 1.5-fold of each other in IC50: 5.6 µM for the first, 6 µM for the second.

Compared with `O=C1CC(=O)OC(CCc2ccc(OCC(F)(F)F)c(Cl)c2)(C2CCCC2)C1` (stereo not drawn) [A(05), 6-{2-[3-Chloro-4-(2,2,2-trifluoro-ethoxy)-phenyl]-ethyl}-6-cyclopentyl-dihydro-pyran-2,4-dione], `CC(=O)Nc1ccc(CCC2(C3CCCC3)CC(=O)CC(=O)O2)cc1F` (stereo not drawn) [A(07), N-{4-[2-(2-Cyclopentyl-4,6-dioxo-tetrahydro-pyran-2-yl)-ethyl]-2-fluoro-phenyl}-acetamide] is 2.6-fold higher in IC50: 5.1 µM for the first, 13.4 µM for the second. The first is the more potent here.

`COc1ccc(SCC2(C3CCCC3)CC(=O)CC(=O)O2)cc1` (stereo not drawn) [A(06), 6-Cyclopentyl-6-(4-methoxy-phenylsulfanylmethyl)-dihydro-pyran-2,4-dione] and `Cc1ccc(-c2ccc(CCC3(C4CCCC4)CC(=O)CC(=O)O3)cc2F)s1` (stereo not drawn) [A(12), 6-Cyclopentyl-6-{2-[3-fluoro-4-(5-methyl-thiophen-2-yl)-phenyl]-ethyl}-dihydro-pyran-2,4-dione] are within 1.5-fold of each other in IC50: 23.5 µM for the first, 18.3 µM for the second.

`O=C1CC(=O)OC(CCc2ccc(-c3ccccc3)c(F)c2)(C2CCCC2)C1` (stereo not drawn) [A(09), 6-Cyclopentyl-6-[2-(2-fluoro-biphenyl-4-yl)-ethyl]-dihydro-pyran-2,4-dione] and `O=C1CC(=O)OC(CCc2ccc(-c3cc4ccccc4s3)c(F)c2)(C2CCCC2)C1` (stereo not drawn) [A(10), 6-[2-(4-Benzo[b]thiophen-2-yl-3-fluoro-phenyl)-ethyl]-6-cyclopentyl-dihydro-pyran-2,4-dione] are within 1.5-fold of each other in IC50: 5.5 µM for the first, 8.1 µM for the second.

Compared with `CNC(=O)c1ccc(CCC2(C3CCCC3)CC(=O)CC(=O)O2)cc1F` (stereo not drawn) [A(11), 4-[2-(2-Cyclopentyl-4,6-dioxo-tetrahydro-pyran-2-yl)-ethyl]-2-fluoro-N-methyl-benzamide], `Cc1nc(-c2ccc(CCC3(C4CCCC4)CC(=O)CC(=O)O3)cc2F)no1` (stereo not drawn) [A(15), 6-Cyclopentyl-6-{2-[3-fluoro-4-(5-methyl-[1,2,4]oxadiazol-3-yl)-phenyl]-ethyl}-dihydro-pyran-2,4-dione] is 3.8-fold lower in IC50: 16.7 µM for the first, 4.4 µM for the second.

`O=C1CC(=O)OC(CCC2=CCCCC2)(C2CCCC2)C1` (stereo not drawn) [A(13), 6-(2-Cyclohex-1-enyl-ethyl)-6-cyclopentyl-dihydro-pyran-2,4-dione] gave an IC50 of 63 µM.
